# Source: patent publication US20120129811A1, “TRICYCLIC INHIBITORS OF PRO-MATRIX METALLOPROTEINASE ACTIVATION” (priority 2010, published 2012)
# Biological target: T1, MMP9 (Rattus norvegicus, UniProt P50282)
# T1 construct: Pro and active MMP9 were abundantly present in ankles of SCW-induced vehicle-treated rats; from tissue; host or cells: tibia-tarsus joints (ankles) of female Lewis rats
# Assay: Western blot of pro and active MMP9 in ankles of rats with SCW-induced arthritis
# Type: in vivo
# Conditions: Day 26, four hours after AM dose
# Method: Hind-limbs were skinned, severed just above the tibia-tarsus joint and below the metatarsals, and the tibia-tarsus joints (ankles) were weighed, snap frozen and pulverized on dry ice using a hammer and anvil. The pulverized tissue was suspended in 3 volumes (w:v) of ice-cold homogenization buffer containing 50 mM Tris pH 7.5, 150 mM NaCl, 5 mM EDTA, 1% Triton X100, 0.05% Brij 30, 10% dimethylsulfoxide and Complete EDTA-free Protease Inhibitor Cocktail (Roche Diagnostics). The suspended tissue was homogenized sequentially with a Kinematica AG Polytron and a Dounce homogenizer. Homogenates were centrifuged at 16,000×g for 10 min at 4° C. and the soluble fractions were saved. Dimethylsulfoxide was removed from a portion of each soluble fraction using PD MiniTrap™ G-25 desalting columns (GE Healthcare). Homogenates (0.25 mL), free of DMSO, were diluted with an equal volume of binding buffer (i.e., homogenization buffer without dimethylsufoxide) and adjusted to contain 50 μL of a 50% slurry of gelatin-conjugated sepharose. Following 2 hours of rotation at 4° C. the beads were washed twice in binding buffer and eluted in 100 μL 2×-reducing Laemmli buffer with heating to 95° C. for 5 minutes. […]
# T1 sequence (P50282 108-708): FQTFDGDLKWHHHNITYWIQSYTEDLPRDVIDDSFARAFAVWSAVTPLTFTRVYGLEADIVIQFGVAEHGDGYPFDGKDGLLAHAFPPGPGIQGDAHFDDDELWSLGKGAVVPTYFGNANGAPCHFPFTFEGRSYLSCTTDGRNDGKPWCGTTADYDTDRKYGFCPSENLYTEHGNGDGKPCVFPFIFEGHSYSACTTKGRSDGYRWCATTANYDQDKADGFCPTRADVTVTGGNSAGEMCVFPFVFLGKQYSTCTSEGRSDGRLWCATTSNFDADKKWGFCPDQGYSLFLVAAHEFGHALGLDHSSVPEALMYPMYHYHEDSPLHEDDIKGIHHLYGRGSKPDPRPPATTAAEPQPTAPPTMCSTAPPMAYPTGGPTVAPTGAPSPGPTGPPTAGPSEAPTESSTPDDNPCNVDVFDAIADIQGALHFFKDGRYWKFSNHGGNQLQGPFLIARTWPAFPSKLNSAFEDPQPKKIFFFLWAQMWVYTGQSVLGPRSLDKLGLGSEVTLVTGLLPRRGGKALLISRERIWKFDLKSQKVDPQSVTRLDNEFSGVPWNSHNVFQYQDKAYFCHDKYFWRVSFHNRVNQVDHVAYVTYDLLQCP
structure (smiles),measurement,setting,value
"Cc1nc(C)c(-c2csc(Nc3cc(S(N)(=O)=O)ccc3OC(C)C)n2)s1 [Compound α, 3-(2′,4′-Dimethyl-[4,5′]bithiazolyl-2-ylamino)-4-isopropoxy-benzenesulfonamide.HBr]",effect on abundance of proMMP9 in ankles,mAb-L51/82,did not reduce the abundance of proMMP-9
same,effect on abundance of proMMP9 in ankles,"mAb-L51/82, listed as Compound-α",did not reduce the abundance of proMMP9
